# Assay results from patent publication US7321000B2, “Ophthalmic composition containing N-acetyl-cysteine for the treatment of dry-eye syndrome” (Farmigea S.p.A., priority 2001, dated 2008).
# Experiment: Stability studies: autoclaving, colorimetric determination of N-AC
# Type: physicochemical
# Details: 120° C., 20 min.; both in the presence and absence of benzalkonium chloride
# Method: The formulations underwent autoclaving (120° C., 20 min.): as highlighted in the prior art, N-acetyl-cysteine is degraded by about 30% (both in the presence and absence of benzalkonium chloride). It is, however, possible to carry out sterilisation by filtering through a 0.2 μm membrane, as was performed in the aforesaid examples.
# In order to evaluate the stability of N-AC in the vehicle, it is not possible to use the HPLC method or ultraviolet spectrophotometry. The following calorimetric method was thus employed (Raggi M. A., Cavrini V. and Di Pietra A. M., Colorimetric determination of acetylcysteine, penicillamine and mercaptopropionylglycine in pharmaceutical dosage forms, J. Pharm. Sci., 71, 1384-1386 (1982)).
# 0.163 g of acetylcysteine is dissolved in 500 ml of distilled H2O. By diluting in a proportion of 1:5, the required concentration is obtained.
# Increasing volumes of this solution (1-5 ml) are placed in a 25 ml flask and then the following are added in succession:
# After 20 min the absorbance is measured at 515 nm by using as reference a control prepared at the same time as the sample.
# The procedure described above was also applied to carry out the calibration of N-AC in the presence of DEAE-dextrane. For these samples, the measurement was carried out by using as reference a control containing the polymer and also a control without DEAE-dextrane.
smiles,measurement,value
CC(=O)N[C@@H](CS)C(=O)O [N-acetyl-cysteine],degradation of N-acetyl-cysteine on autoclaving,about 30%
